Source: publication PMC6100082, “Pyridine-Ureas as Potential Anticancer Agents: Synthesis and In Vitro Biological Evaluation” (Molecules : A Journal of Synthetic Chemistry and Natural …, 2018)
Read-outs that look alike come from different tables or passages of the source.

Key:
[1] = test system: breast cancer MCF-7 cell line; assay: In vitro anti-proliferative activity, MTT assay; format: cell-based, human; conditions: MCF-7, MTT
Method in brief: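 Growth inhibition was read colorimetrically by MTT, run in triplicate and averaged over at least three independent experiments. The cells were maintained in DMEM supplemented with 10 μg/mL insulin, 10% heat-inactivated FBS and 1% penicillin-streptomycin.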

NCI 58 cell line panel = assay: NCI one-dose SRB assay, whole panel / subpanel summary; format: cell-based, human; conditions: for inhibition at 10 µM: Homo sapiens, one dose, read-out: mean inhibition (mean % growth inhibition over NCI 58 cell line panel); for Mean Growth Percent: One Dose Mean Graph, 1.00E-5 Molar
Method in brief: (§1)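 Tested once at 10^−5 M over 48 h. SRB protein staining measured growth. GI% values.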

CCRF-CEM = assay: NCI one-dose SRB assay (Leukemia); format: cell-based, human; conditions: for Growth Percent: 1.00E-5 Molar; for inhibition at 10 µM: Homo sapiens, read-out: Percentage growth inhibition (GI%)
Method in brief: as §1

HL-60(TB) = assay: NCI one-dose SRB assay (Leukemia); format: cell-based, human; conditions: for Growth Percent: 1.00E-5 Molar; for inhibition at 10 µM: Homo sapiens, read-out: Percentage growth inhibition (GI%)
Method in brief: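 NCI single-concentration screen (10^−5 M): after 48 h drug treatment, SRB-stained protein indicated cell growth, converted to GI%.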

K-562 = assay: NCI one-dose SRB assay (Leukemia); format: cell-based, human; conditions: for inhibition at 10 µM: Homo sapiens, K562, K-562, 10 μM, read-out: Percentage growth inhibition (GI%); for Growth Percent: K-562, 1.00E-5 Molar
Method in brief: as §1

MOLT-4 = assay: NCI one-dose SRB assay (Leukemia); format: cell-based, human; conditions: for inhibition at 10 µM: Homo sapiens, MOLT-4, 10 μM, read-out: Percentage growth inhibition (GI%); for Growth Percent: MOLT-4, 1.00E-5 Molar
Method in brief: as §1

RPMI-8226 = assay: NCI one-dose SRB assay (Leukemia); format: cell-based, human; conditions: for inhibition at 10 µM: Homo sapiens, RPMI-8226, 10 μM, read-out: Percentage growth inhibition (GI%); for Growth Percent: RPMI-8226, 1.00E-5 Molar
Method in brief: as §1

SR = assay: NCI one-dose SRB assay (Leukemia); format: cell-based, human; conditions: for Growth Percent: 1.00E-5 Molar; for inhibition at 10 µM: Homo sapiens, read-out: Percentage growth inhibition (GI%)
Method in brief: as §1

COLO 205 = assay: NCI one-dose SRB assay (Colon Cancer); format: cell-based, human; conditions: for Growth Percent: COLO 205, 1.00E-5 Molar; for inhibition at 10 µM: Homo sapiens, COLO 205, 10 μM, read-out: Percentage growth inhibition (GI%)
Method in brief: as §1

HCC-2998 = assay: NCI one-dose SRB assay (Colon Cancer); format: cell-based, human; conditions: for Growth Percent: HCC-2998, 1.00E-5 Molar; for inhibition at 10 µM: Homo sapiens, HCC-2998, 10 μM, read-out: Percentage growth inhibition (GI%)
Method in brief: as §1

HCT-116 = assay: NCI one-dose SRB assay (Colon Cancer); format: cell-based, human; conditions: for Growth Percent: HCT-116, 1.00E-5 Molar; for inhibition at 10 µM: Homo sapiens, HCT-116, 10 μM, read-out: Percentage growth inhibition (GI%)
Method in brief: as §1

HCT-15 = assay: NCI one-dose SRB assay (Colon Cancer); format: cell-based, human; conditions: for Growth Percent: HCT-15, 1.00E-5 Molar; for inhibition at 10 µM: Homo sapiens, HCT-15, 10 μM, read-out: Percentage growth inhibition (GI%)
Method in brief: as §1

HT29 = assay: NCI one-dose SRB assay (Colon Cancer); format: cell-based, human; conditions: for Growth Percent: HT29, 1.00E-5 Molar; for inhibition at 10 µM: Homo sapiens, HT-29, HT29, 10 μM, read-out: Percentage growth inhibition (GI%)
Method in brief: as §1

KM12 = assay: NCI one-dose SRB assay (Colon Cancer); format: cell-based, human; conditions: for inhibition at 10 µM: Homo sapiens, KM12, 10 μM, read-out: Percentage growth inhibition (GI%); for Growth Percent: KM12, 1.00E-5 Molar
Method in brief: as §1

SW-620 = assay: NCI one-dose SRB assay (Colon Cancer); format: cell-based, human; conditions: for inhibition at 10 µM: Homo sapiens, SW-620, 10 μM, read-out: Percentage growth inhibition (GI%); for Growth Percent: SW-620, 1.00E-5 Molar
Method in brief: as §1

SF-268 = assay: NCI one-dose SRB assay (CNS Cancer); format: cell-based, human; conditions: for inhibition at 10 µM: Homo sapiens, SF-268, 10 μM, read-out: Percentage growth inhibition (GI%); for Growth Percent: SF-268, 1.00E-5 Molar
Method in brief: as §1

SF-295 = assay: NCI one-dose SRB assay (CNS Cancer); format: cell-based, human; conditions: for inhibition at 10 µM: Homo sapiens, SF-295, 10 μM, read-out: Percentage growth inhibition (GI%); for Growth Percent: SF-295, 1.00E-5 Molar
Method in brief: as §1

SF-539 = assay: NCI one-dose SRB assay (CNS Cancer); format: cell-based, human; conditions: for inhibition at 10 µM: Homo sapiens, SF-539, 10 μM, read-out: Percentage growth inhibition (GI%); for Growth Percent: SF-539, 1.00E-5 Molar
Method in brief: as §1

SNB-19 = assay: NCI one-dose SRB assay (CNS Cancer); format: cell-based, human; conditions: for inhibition at 10 µM: Homo sapiens, SNB-19, 10 μM, read-out: Percentage growth inhibition (GI%); for Growth Percent: SNB-19, 1.00E-5 Molar
Method in brief: as §1

SNB-75 = assay: NCI one-dose SRB assay (CNS Cancer); format: cell-based, human; conditions: for inhibition at 10 µM: Homo sapiens, SNB-75, 10 μM, read-out: Percentage growth inhibition (GI%); for Growth Percent: SNB-75, 1.00E-5 Molar
Method in brief: as §1

U251 = assay: NCI one-dose SRB assay (CNS Cancer); format: cell-based, human; conditions: for inhibition at 10 µM: Homo sapiens, U-251, U251, 10 μM, read-out: Percentage growth inhibition (GI%); for Growth Percent: U251, 1.00E-5 Molar
Method in brief: as §1

DU-145 = assay: NCI one-dose SRB assay (Prostate); format: cell-based, human; conditions: for Growth Percent: DU-145, 1.00E-5 Molar; for inhibition at 10 µM: Homo sapiens, DU-145, 10 μM, read-out: Percentage growth inhibition (GI%)
Method in brief: as §1

PC-3 = assay: NCI one-dose SRB assay (Prostate); format: cell-based, human; conditions: for inhibition at 10 µM: Homo sapiens, PC-3, 10 μM, read-out: Percentage growth inhibition (GI%); for Growth Percent: PC-3, 1.00E-5 Molar
Method in brief: as §1

[2] = Homo sapiens, MCF7, 48 h, 48 h of incubation, read-out: IC50 48 h
[3] = Homo sapiens, MCF7, 72 h, 72 h of incubation, read-out: IC50 72 h

## COc1ccc(-c2ccc(NC(=O)Nc3cccc(Cl)c3)c(C)n2)cc1OC [Compound 8j, 1-(3-Chlorophenyl)-3-(6-(3,4-dimethoxyphenyl)-2-methylpyridin-3-yl) Urea]
[1]; [2]
  IC50: 10.1 µM
[1]; [3]
  IC50: 26.2 ± 2.17 µM
[1]; 48 h of incubation, read-out: IC50 48 h
  IC50: 10.9 ± 1.03 µM
NCI 58 cell line panel
  inhibition at 10 µM: 22 to 34%
  Mean Growth Percent: 78.01%
CCRF-CEM
  Growth Percent: 68.29%
  inhibition at 10 µM: 32%
HL-60(TB)
  Growth Percent: 63.92%
  inhibition at 10 µM: 37%
K-562
  inhibition at 10 µM: 60%
  Growth Percent: 40.86%
MOLT-4
  inhibition at 10 µM: 58%
  Growth Percent: 42.64%
RPMI-8226
  inhibition at 10 µM: 49%
  Growth Percent: 51.32%
SR
  Growth Percent: 52.07%
  inhibition at 10 µM: 48%
COLO 205
  Growth Percent: 93.06%
  inhibition at 10 µM: < 10%
HCC-2998
  Growth Percent: 88.09%
  inhibition at 10 µM: 12%
HCT-116
  Growth Percent: 63.31%
  inhibition at 10 µM: 37%
HCT-15
  Growth Percent: 60.62%
  inhibition at 10 µM: 40%
HT29
  Growth Percent: 74.98%
  inhibition at 10 µM: 26%
KM12
  inhibition at 10 µM: 22%
  Growth Percent: 78.93%
SW-620
  inhibition at 10 µM: < 10%
  Growth Percent: 98.24%
SF-268
  inhibition at 10 µM: 13%
  Growth Percent: 87.00%
SF-295
  inhibition at 10 µM: 17%
  Growth Percent: 83.73%
SF-539
  inhibition at 10 µM: 11%
  Growth Percent: 89.70%
SNB-19
  inhibition at 10 µM: < 10%
  Growth Percent: 97.00%
SNB-75
  inhibition at 10 µM: 16%
  Growth Percent: 84.12%
U251
  inhibition at 10 µM: 17%
  Growth Percent: 83.31%
DU-145
  Growth Percent: 101.79%
  inhibition at 10 µM: < 10%
PC-3
  inhibition at 10 µM: 61%
  Growth Percent: 39.30%
other
  melting point: 249 to 250 °C

## COc1cccc(NC(=O)Nc2ccc(-c3ccc(OC)c(OC)c3)nc2C)c1 [Compound 8m, 1-(6-(3,4-Dimethoxyphenyl)-2-methylpyridin-3-yl)-3-(3-methoxyphenyl) Urea]
[1]; [2]
  IC50: 23 ± 1.91 µM
[1]; [3]
  IC50: 13.1 ± 1.12 µM
NCI 58 cell line panel
  inhibition at 10 µM: 8%
  Mean Growth Percent: 92.83%
CCRF-CEM
  Growth Percent: 89.11%
  inhibition at 10 µM: 11%
HL-60(TB)
  Growth Percent: 73.33%
  inhibition at 10 µM: 27%
K-562
  inhibition at 10 µM: 22%
  Growth Percent: 78.49%
MOLT-4
  inhibition at 10 µM: 35%
  Growth Percent: 65.34%
RPMI-8226
  inhibition at 10 µM: 26%
  Growth Percent: 74.18%
SR
  Growth Percent: 82.12%
  inhibition at 10 µM: 18%
COLO 205
  Growth Percent: 119.56%
  inhibition at 10 µM: < 10%
HCC-2998
  Growth Percent: 97.15%
  inhibition at 10 µM: < 10%
HCT-116
  Growth Percent: 78.84%
  inhibition at 10 µM: 22%
HCT-15
  Growth Percent: 91.11%
  inhibition at 10 µM: < 10%
HT29
  Growth Percent: 75.95%
  inhibition at 10 µM: 25%
KM12
  inhibition at 10 µM: < 10%
  Growth Percent: 96.43%
SW-620
  inhibition at 10 µM: < 10%
  Growth Percent: 101.68%
SF-268
  inhibition at 10 µM: < 10%
  Growth Percent: 94.56%
SF-295
  inhibition at 10 µM: < 10%
  Growth Percent: 99.68%
SF-539
  inhibition at 10 µM: < 10%
  Growth Percent: 93.97%
SNB-19
  inhibition at 10 µM: < 10%
  Growth Percent: 115.50%
SNB-75
  inhibition at 10 µM: < 10%
  Growth Percent: 104.39%
U251
  inhibition at 10 µM: < 10%
  Growth Percent: 94.15%
DU-145
  Growth Percent: 99.53%
  inhibition at 10 µM: < 10%
PC-3
  inhibition at 10 µM: 41%
  Growth Percent: 59.08%
other
  melting point: 243 to 245 °C
